Patent publication US12227520B2 (priority 2019, dated 2025)
Like-named read-outs stand apart in the source and are kept apart here.

How the values were obtained:
[1] = Cytotoxicity assay in MT-4 cells; assay type: cell-based, human; conditions: human, uninfected MT-4 cells, 5 days incubation; read-out: CC50
In short: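 Infected MT-4 cells (HIV-1 IIIB, fresh 1:250 dilution of concentrated stock) or mock-infected cells exposed to compounds for 5 days at 37 °C. Viability by CellTiter-Glo luminescence; 5 μM AZT positive control, no-drug negative control. Uninfected cells used for cytotoxicity, with 10 μM puromycin as base-level cytotoxicity control.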

[2] = test system: pLai RLuc reporter virus; assay: microbe, parasite or virus in culture; assay type: cell-based, HIV; conditions: Human immunodeficiency virus 1, 72 h
Method: To quantify the amount of protein binding to human serum, compounds were serially diluted (1:3) in DMSO and acoustically transferred onto 384-well assay plates via a Labcyte ECHO robot. Each plate contained up to 8 test compounds, including negative and positive controls, (DMSO, 5 μM AZT respectively). Assay plates were prepared in duplicate, and tested in either CCM (cell culture media) or HS/CCM (human serum/cell culture media). MT-4 cells were first pre-infected with pLai RLuc reporter virus for 2 h at 37° C., then further diluted in either CCM (RPMI media, 10% FBS, 1% P/S) or HS/CCM (RPMI media, 10% FBS, 50% HS, 1% P/S), and subsequently added to each plate using a Biotek Micro Flow dispenser. After a 72-h incubation in a humidified and temperature controlled incubator (37° C.), Renilla Glo (Promega) was added to all assay plates and chemiluminescence read using an Envision plate-reader. […] To determine the amount of protein binding, EC50 fold shifts (or EC50 shifts) were calculated by dividing EC50 (HS/CCM)/EC50 (CCM).

[3] = test system: HIV-1 (IIIB); assay: Antiviral assay in MT-4 cells (HIV MT-4 antiviral assay); assay type: cell-based; conditions: Human immunodeficiency virus 1, IIIB, MT4, 120 h, HIV-1 (IIIB) in MT-4 cells, 5 days incubation; read-out: EC50
In short: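 MT-4 cells infected with HIV-1 IIIB (1:250 diluted stock) and exposed to 1:3 serially diluted compound in RPMI with 10% FBS. Viability read by CellTiter-Glo luminescence after 5 days at 37° C; mock-infected cells and 5 μM AZT as controls.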

[4] = read-out: Antiviral Serum Shift RLuc 50% HS, HS/CCM (RPMI media, 10% FBS, 50% HS, 1% P/S), 72-h incubation
[5] = read-out: Antiviral Serum Shift RLuc CCM, CCM (RPMI media, 10% FBS, 1% P/S), 72-h incubation

Structure (SMILES)	CC50 at 5 days [1]	EC50 [2, 4]	EC50 [2, 5]	EC50 [3]
O=C(NCc1ccc(F)cc1)c1cn2c(c(O)c1=O)C(=O)N1CCCC[C@H]2C1 [Example 166, (7S)—N-(4-fluorobenzyl)-12-hydroxy-1,11-dioxo-1,4,5,6,7,11-hexahydro-3H-2,7-methanopyrido[1,2-a][1,4]diazonine-10-carboxamide]	15.6 µM	1.62 nM	0.583 nM	2.5 nM
C[C@H]1CC[C@H](C)N2C[C@H]1n1cc(C(=O)NCc3ccc(F)cc3F)c(=O)c(O)c1C2=O [Example 187, (3S,6S,7S)—N-(2,4-difluorobenzyl)-12-hydroxy-3,6-dimethyl-1,11-dioxo-1,4,5,6,7,11-hexahydro-3H-2,7-methanopyrido[1,2-a][1,4]diazonine-10-carboxamide]	10.8 µM	44 nM	0.383 nM	1.18 nM
O=C(NCc1c(F)cc(F)cc1F)c1cn2c(c(O)c1=O)C(=O)N1Cc3cc(F)ccc3C[C@H]2C1 [Example 145, (6S)-10-fluoro-1-hydroxy-2,14-dioxo-N-(2,4,6-trifluorobenzyl)-2,7,12,14-tetrahydro-6H-6,13-methanobenzo[f]pyrido[1,2-a][1,4]diazonine-3-carboxamide]	8.85 µM	0.92 nM	0.218 nM	0.822 nM
C[C@H]1[C@H]2CCCCN1C(=O)c1c(O)c(=O)c(C(=O)NCc3ccc(F)cc3F)cn12 [Example 9, (7R,13S)—N-(2,4-difluorobenzyl)-12-hydroxy-13-methyl-1,11-dioxo-1,4,5,6,7,11-hexahydro-3H-2,7-methanopyrido[1,2-a][1,4]diazonine-10-carboxamide]	6.61 µM	1.68 nM	0.33 nM	1.8 nM
O=C(NCc1c(F)cc(F)cc1F)c1cn2c(c(O)c1=O)C(=O)N1CCC=C(F)[C@@H]2C1 (single isomer, unassigned) [Example 75-1]	15.1 µM	298 nM	0.595 nM	3.76 nM
O=C(NCc1c(F)cc(F)cc1F)c1cn2c(c(O)c1=O)C(=O)N1C[C@@H]2CCc2ccc(F)cc21 [Example 86-2, (12S)-3-fluoro-7-hydroxy-6,8-dioxo-N-(2,4,6-trifluorobenzyl)-6,8,13,14-tetrahydro-12H-5,12-methanobenzo[e]pyrido[1,2-a][1,4]diazonine-9-carboxamide]	13.7 µM	0.5 nM	0.262 nM	1.1 nM
O=C(NCc1ccc(F)cc1F)c1cn2c(c(O)c1=O)C(=O)N1C[C@@H]2CCC[C@@H]1C(F)F [Example 189, (3R,7S)—N-(2,4-difluorobenzyl)-3-(difluoromethyl)-12-hydroxy-1,11-dioxo-1,4,5,6,7,11-hexahydro-3H-2,7-methanopyrido[1,2-a][1,4]diazonine-10-carboxamide]	12.3 µM	6.06 nM	0.411 nM	1.56 nM
O=C(NCc1ccc(F)cc1F)c1cn2c(c(O)c1=O)C(=O)N1CCc3cc(Cl)ccc3[C@@H]2C1 [Example 140-2, (13R)-10-chloro-N-(2,4-difluorobenzyl)-4-hydroxy-3,5-dioxo-3,5,8,13-tetrahydro-7H-6,13-methanobenzo[g]pyrido[1,2-a][1,4]diazonine-2-carboxamide]	5.23 µM	22.4 nM	0.347 nM	1.92 nM
O=C(NCc1c(F)cc(F)cc1F)c1cn2c(c(O)c1=O)C(=O)N1CCC[C@H](F)[C@H]2C1 [Example 15-2, (6S, 7R)-6-fluoro-12-hydroxy-1,11-dioxo-N-(2,4,6-trifluorobenzyl)-1,4,5,6,7,11-hexahydro-3H-2,7-methanopyrido[1,2-a][1,4]diazonine-10-carboxamide]	15.3 µM	4.32 nM	0.29 nM	1.4 nM
C[C@@]12Cc3cc(F)c(F)cc3CN(C1)C(=O)c1c(O)c(=O)c(C(=O)NCc3c(F)cc(F)cc3F)cn12 (single isomer, unassigned) [Example 191-1]	11.6 µM	2.69 nM	0.611 nM	2.61 nM
O=C(NCc1c(F)cc(F)cc1F)c1cn2c(c(O)c1=O)C(=O)N1CC[C@@H](O)CC[C@H]2C1 [Example 83-1, (5S,8S)-5,13-dihydroxy-1,12-dioxo-N-(2,4,6-trifluorobenzyl)-1,3,4,5,6,7,8,12-octahydro-2,8-methanopyrido[1,2-a][1,4]diazecine-11-carboxamide]	> 50 µM	7.08 nM	8.19 nM	39 nM
O=C(NCc1ccc(F)c(Cl)c1F)c1cn2c(c(O)c1=O)C(=O)N1CCC=C(F)[C@H]2C1 (single isomer, unassigned) [Example 123-1]	13.7 µM	3.67 nM	0.316 nM	2.05 nM
O=C(NCc1c(F)cc(F)cc1F)c1cn2c(c(O)c1=O)C(=O)N1CCC[C@@H](Cl)[C@H]2C1 (single isomer, unassigned) [Example 72-2]	12.1 µM	34 nM	0.267 nM	4.27 nM
C[C@@H]1C=C[C@H](C)N2C[C@H]1n1cc(C(=O)NCc3ccc(F)cc3F)c(=O)c(O)c1C2=O [Example 177, (3S,6R,7S)—N-(2,4-difluorobenzyl)-12-hydroxy-3,6-dimethyl-1,11-dioxo-1,6,7,11-tetrahydro-3H-2,7-methanopyrido[1,2-a][1,4]diazonine-10-carboxamide]	8.54 µM	11.1 nM	0.294 nM	0.915 nM
C[C@@H]1N2C[C@H](CCC1(C)F)n1cc(C(=O)NCc3c(F)cc(F)cc3F)c(=O)c(O)c1C2=O (stereo partly drawn) [Example 144-1, (3S,7S)-4-fluoro-12-hydroxy-3,4-dimethyl-1,11-dioxo-N-(2,4,6-trifluorobenzyl)-1,4,5,6,7,11-hexahydro-3H-2,7-methanopyrido[1,2-a][1,4]diazonine-10-carboxamide]	9.18 µM	2.63 nM	0.285 nM	1.65 nM
C[C@H]1CC[C@H]2CN(C1)C(=O)c1c(O)c(=O)c(C(=O)NCc3c(F)cc(F)cc3F)cn12 [Example 137-1, (4S,7S)-12-hydroxy-4-methyl-1,11-dioxo-N-(2,4,6-trifluorobenzyl)-1,4,5,6,7,11-hexahydro-3H-2,7-methanopyrido[1,2-a][1,4]diazonine-10-carboxamide]	14.7 µM	0.707 nM	0.184 nM	2.63 nM
O=C(NCc1c(F)cc(F)c(Cl)c1F)c1cn2c(c(O)c1=O)C(=O)N1CCCC[C@H]2C1 [Example 74, (7S)—N-(3-chloro-2,4,6-trifluorobenzyl)-12-hydroxy-1,11-dioxo-1,4,5,6,7,11-hexahydro-3H-2,7-methanopyrido[1,2-a][1,4]diazonine-10-carboxamide]	7.28 µM	13.8 nM	0.492 nM	1.52 nM
O=C(NCc1c(F)cc(F)cc1F)c1cn2c(c(O)c1=O)C(=O)N1C[C@@H]2CS(=O)(=O)c2ccccc21 [Example 96, (6R)-1-hydroxy-2,14-dioxo-N-(2,4,6-trifluorobenzyl)-2,6,7,14-tetrahydro-6,13-methanobenzo[b]pyrido[2,1-f][1,4,7]thiadiazonine-3-carboxamide 8,8-dioxide]	> 50 µM	3.33 nM	3.09 nM	18.1 nM
O=C1CC[C@H]2CN(C1)C(=O)c1c(O)c(=O)c(C(=O)NCc3c(F)cc(F)cc3F)cn12 [Example 78, (7S)-12-hydroxy-1,4,11-trioxo-N-(2,4,6-trifluorobenzyl)-1,4,5,6,7,11-hexahydro-3H-2,7-methanopyrido[1,2-a][1,4]diazonine-10-carboxamide]	> 50 µM	3.76 nM	1.93 nM	9.56 nM
C[C@]1(F)CCCN2C[C@H]1n1cc(C(=O)NCc3c(F)cc(F)cc3F)c(=O)c(O)c1C2=O [Example 179, (6S,7R)-6-fluoro-12-hydroxy-6-methyl-1,11-dioxo-N-(2,4,6-trifluorobenzyl)-1,4,5,6,7,11-hexahydro-3H-2,7-methanopyrido[1,2-a][1,4]diazonine-10-carboxamide]	13.1 µM	0.803 nM	0.335 nM	1.49 nM
C[C@@H]1[C@H]2CCCCN1C(=O)c1c(O)c(=O)c(C(=O)NCc3ccc(F)cc3F)cn12 [Example 7, (7R,13R)—N-(2,4-difluorobenzyl)-12-hydroxy-13-methyl-1,11-dioxo-1,4,5,6,7,11-hexahydro-3H-2,7-methanopyrido[1,2-a][1,4]diazonine-10-carboxamide]	8.81 µM	1.47 nM	0.28 nM	1.4 nM
